Results on ten compounds are retold here after US4483794A, “Analogs of neurohypophysial hormones” (Ceskoslovenska akademie ved, priority 1983, dated 1984).

The term pA2 denotes the negative logarithm of the molar antagonist concentration that doubles the agonist concentration needed for the same response. A high value points to a more potent antagonist.

*1 amine or outer side, *2 acyl side, *3 side chain or, on linkers, in order; H or OH if unused. Where a SMILES comes first, the peptide text is derived from it. Bridges are numbered along the chain shown (N, C = ends). [ ]: non-standard residue; d: D form. dPhe(4-Et) = CCc1ccc(C[C@@H](N)C(=O)O)cc1; dPhe(4-Me) = Cc1ccc(C[C@@H](N)C(=O)O)cc1; hCys = N[C@@H](CCS)C(=O)O; X1 = O=C(CC[*:2])[*:1]

The target in one assay is T1, isolated rat uterus (Rattus norvegicus, UniProt P70536).
T1 construct: isolated rat uterus; from tissue; host or cells: isolated rat uterus
T1 sequence (P70536 1-388): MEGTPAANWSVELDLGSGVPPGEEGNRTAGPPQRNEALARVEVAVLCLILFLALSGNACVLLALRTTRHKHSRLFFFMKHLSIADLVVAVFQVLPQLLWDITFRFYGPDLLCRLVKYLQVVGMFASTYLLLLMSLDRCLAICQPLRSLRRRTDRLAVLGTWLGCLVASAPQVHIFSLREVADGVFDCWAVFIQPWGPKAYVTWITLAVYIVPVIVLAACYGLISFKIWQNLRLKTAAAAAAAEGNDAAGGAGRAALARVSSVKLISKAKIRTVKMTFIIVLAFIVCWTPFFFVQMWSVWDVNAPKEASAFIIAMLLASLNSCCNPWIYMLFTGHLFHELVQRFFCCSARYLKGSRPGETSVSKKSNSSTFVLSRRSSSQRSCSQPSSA
Kind of assay: pA2 values as tested with an isolated rat uterus (oxytocin as agonist). The assay is classed as cell-based. As to conditions: negative decadic logarithm of an inhibitory constant. The text has this: Each of the above-identified analogs evidenced strong inhibitory effects. Table I, set forth below, set forth numerical values of the biological activity of these analogs wherein pA2 represents the negative decadic logarithm of an inhibitory constant in accordance with the equation [formula] wherein B is the concentration of the inhibitor in moles per liter, A50 is the concentration of an agonistic compound (oxytocin) which results in 50% of the maximum effect, and A50B is the concentration of an agonistic compound yielding 50% of the maximum effect in the presence of an inhibitor of concentration B (Eggena P., Schwartz I. L., and Walter R.: J. Gen. Physiol. 52, 465 (1968).
pA2 values as tested with an isolated rat uterus

Assay [1] has as its target T2, biological effect of vasopressin (blood pressure) (Rattus norvegicus, UniProt P30560).
T2 construct: blood pressure in a despinalized rat; from tissue; host or cells: despinalized rat in vivo (vasculature)
Kind of assay: suppression of the biological effect of vasopressin, i.e. of blood pressure in a despinalized rat. As to conditions: in vivo, blood volume 6.7 ml/100g of rat weight assumed. Here is the method:
^(a) the negative decadic logarithm of the analog concentration which
leads to suppression of the biological effect of vasopressin (i.e. of
blood pressure in a despinalized rat) to 50% of the original response; th
blood volume of rat (6.7 ml/100g of rat weight) is assumed in the in vivo
test (Nestor J. J., Ferger M. F., du Vigneaud V.: J. Med. Chem. 18, 284

In assay [2] the test system is uterotonic activity of oxytocin. Description: inhibitory effect toward the uterotonic activity of oxytocin in the in vivo test with a uterus. As to conditions: compared with the equipotential dose of [2D-p-ethylphenylalanine] oxytocin. The text has this: uterotonic activity of oxytocin in the in vivo test with a uterus as
compared with the equipotential dose of the compound ([
2D-p-ethylphenylalanine] oxytocin).

In assay [3] the test system is uterotonic and pressor activity of natural hormones. Kind of assay: inhibitory effects of the analogs toward natural hormones (general statements). As to conditions: in words.

T2 sequence (P30560 whole entry): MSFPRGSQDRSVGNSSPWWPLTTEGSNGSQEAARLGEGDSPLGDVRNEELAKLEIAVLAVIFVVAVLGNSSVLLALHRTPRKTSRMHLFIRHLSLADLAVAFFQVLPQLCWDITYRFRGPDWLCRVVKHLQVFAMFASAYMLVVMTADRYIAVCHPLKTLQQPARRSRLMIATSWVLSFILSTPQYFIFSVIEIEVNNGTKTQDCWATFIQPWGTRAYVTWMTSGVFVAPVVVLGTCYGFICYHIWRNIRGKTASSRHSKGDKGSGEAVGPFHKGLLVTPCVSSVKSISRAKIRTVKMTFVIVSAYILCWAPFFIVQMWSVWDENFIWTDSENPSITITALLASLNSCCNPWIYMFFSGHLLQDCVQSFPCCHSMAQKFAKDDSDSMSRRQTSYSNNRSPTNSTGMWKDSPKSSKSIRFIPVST

For `CC[C@H](C)[C@@H]1NC(=O)[C@@H](Cc2ccccc2)NC(=O)CCSCC[C@@H](C(=O)N2CCC[C@H]2C(=O)N[C@@H](CC(C)C)C(=O)NCC(N)=O)NC(=O)[C@H](CC(N)=O)NC(=O)[C@H](CCC(N)=O)NC1=O` [Ia, [2-D-Phenylalanine]deamino-6-carba-oxytocin] (HELM PEPTIDE1{[dF].I.Q.N.[O=C([C@H](CCS[*:3])N[*:1])[*:2]].P.L.G.[am]}|CHEM1{[O=C(CC[*:2])[*:1]]}$PEPTIDE1,CHEM1,1:R1-1:R1|PEPTIDE1,CHEM1,5:R3-1:R2$$$V2.0), the Kb at isolated rat uterus is 5.5 nM.
Still for that read-out and setting: the figure for `CCOc1ccc(C[C@H]2NC(=O)CCSCC[C@@H](C(=O)N3CCC[C@H]3C(=O)N[C@@H](CC(C)C)C(=O)NCC(N)=O)NC(=O)[C@H](CC(N)=O)NC(=O)[C@H](CCC(N)=O)NC(=O)[C@H]([C@@H](C)CC)NC2=O)cc1` [Ib, [2-D-o-Ethyltyrosine]deamino-6-carba-oxytocin] ([dY](Et)IQN[hCys]PLG-NH2; linker N-5 via X1) is 28.8 nM.
Still for that read-out and setting: as for `CC[C@H](C)[C@@H]1NC(=O)[C@@H](Cc2ccc(C)cc2)NC(=O)CCSCC[C@@H](C(=O)N2CCC[C@H]2C(=O)N[C@@H](CC(C)C)C(=O)NCC(N)=O)NC(=O)[C@H](CC(N)=O)NC(=O)[C@H](CCC(N)=O)NC1=O` [Ic, [2-D-p-Methylphenylalanine]deamino-6-carba-oxytocin] ([dPhe(4-Me)]IQN[hCys]PLG-NH2; linker N-5 via X1), the figure is 1.86 nM; as for `CCc1ccc(C[C@H]2NC(=O)CCSCC[C@@H](C(=O)N3CCC[C@H]3C(=O)N[C@@H](CC(C)C)C(=O)NCC(N)=O)NC(=O)[C@H](CC(N)=O)NC(=O)[C@H](CCC(N)=O)NC(=O)[C@H]([C@@H](C)CC)NC2=O)cc1` [Id, [2-D-p-Ethylphenylalanine]deamino-6-carba-oxytocin] ([dPhe(4-Et)]IQN[hCys]PLG-NH2; linker N-5 via X1), 1.86 nM.
`CCc1ccc(C[C@H]2NC(=O)CCSSC[C@@H](C(=O)N3CCC[C@H]3C(=O)N[C@@H](CC(C)C)C(=O)NCC(N)=O)NC(=O)[C@H](CC(N)=O)NC(=O)[C@H](CCC(N)=O)NC(=O)[C@H]([C@@H](C)CC)NC2=O)cc1` [Ie, [2-D-p-Ethylphenylalanine]deamino-oxytocin] (HELM PEPTIDE1{[O=C(CCS[*:3])[*:2]].[CCc1ccc(C[C@@H](N[*:1])C(=O)[*:2])cc1].I.Q.N.C.P.L.G.[am]}$PEPTIDE1,PEPTIDE1,1:R3-6:R3$$$V2.0) had a pA2 on isolated rat uterus of 8.06.
The compound `CCc1ccc(C[C@H]2NC(=O)[C@@H](N)CSSC[C@@H](C(=O)N3CCC[C@H]3C(=O)N[C@@H](CC(C)C)C(=O)NCC(N)=O)NC(=O)[C@H](CC(N)=O)NC(=O)[C@H](CCC(N)=O)NC(=O)[C@H]([C@@H](C)CC)NC2=O)cc1` [If, [2-D-p-Ethylphenylalanine]oxytocin] (HELM PEPTIDE1{C.[CCc1ccc(C[C@@H](N[*:1])C(=O)[*:2])cc1].I.Q.N.C.P.L.G.[am]}$PEPTIDE1,PEPTIDE1,1:R3-6:R3$$$V2.0) had a Kb on isolated rat uterus of 7.08 nM.
On the same count and under the same terms, the figure for `CCc1ccc(C[C@H]2NC(=O)[C@@H](N)C(C)(C)SSC[C@@H](C(=O)N3CCC[C@H]3C(=O)N[C@@H](CC(C)C)C(=O)NCC(N)=O)NC(=O)[C@H](CC(N)=O)NC(=O)[C@H](CCC(N)=O)NC(=O)[C@H]([C@@H](C)CC)NC2=O)cc1` [Ig, [1-Penicilamine, 2-D-p-ethylphenylalanine]oxytocin] (HELM PEPTIDE1{[Pen].[CCc1ccc(C[C@@H](N[*:1])C(=O)[*:2])cc1].I.Q.N.C.P.L.G.[am]}$PEPTIDE1,PEPTIDE1,1:R3-6:R3$$$V2.0) is 8.13 nM.
In the case of `CCc1ccc(C[C@H]2NC(=O)[C@@H](N)CSSC[C@@H](C(=O)N3CCC[C@H]3C(=O)N[C@@H](CCCCN)C(=O)NCC(N)=O)NC(=O)[C@H](CC(N)=O)NC(=O)[C@H](CCC(N)=O)NC(=O)[C@H](Cc3ccccc3)NC2=O)cc1` [Ih, [2-D-p-Ethylphenylalanine, 8-lysine]vasopressin] (HELM PEPTIDE1{C.[CCc1ccc(C[C@@H](N[*:1])C(=O)[*:2])cc1].F.Q.N.C.P.K.G.[am]}$PEPTIDE1,PEPTIDE1,1:R3-6:R3$$$V2.0), the “pA2 (negative decadic logarithm of the analog concentration which leads to suppression of the biological effect of vasopressin to 50% of the original response)” value in assay [1] is recorded as 7.05.
Turning to `CCc1ccc(C[C@H]2NC(=O)[C@@H](NC(=O)CNC(=O)CNC(=O)CN)CSSC[C@@H](C(=O)N3CCC[C@H]3C(=O)N[C@@H](CC(C)C)C(=O)NCC(N)=O)NC(=O)[C@H](CC(N)=O)NC(=O)[C@H](CCC(N)=O)NC(=O)[C@H]([C@@H](C)CC)NC2=O)cc1` [Ii, N^δ -Glycyl-glycyl-glycyl[2-D-p-ethylphenylalanine]oxytocin] (HELM PEPTIDE1{G.G.G.C.[CCc1ccc(C[C@@H](N[*:1])C(=O)[*:2])cc1].I.Q.N.C.P.L.G.[am]}$PEPTIDE1,PEPTIDE1,4:R3-9:R3$$$V2.0), on isolated rat uterus, the Kb is 724 nM. Besides, the “inhibitory effect toward the uterotonic activity of oxytocin, duration” value in assay [2] is “prolonged inhibitory effect”.
`CC[C@H](C)[C@@H]1NC(=O)[C@@H](Cc2ccc(C)cc2)NC(=O)CCSCC[C@@H](C(=O)N2CCC[C@H]2C(=O)N[C@@H](CC(C)C)C(=O)O)NC(=O)[C@H](CC(N)=O)NC(=O)[C@H](CCC(N)=O)NC1=O` [Ij, [2-D-p-methylphenylalanine, 9-desglycinamide]deamino-6-carbaoxytocin] ([dPhe(4-Me)]IQN[hCys]PL-OH; linker N-5 via X1) had a Kb on isolated rat uterus of 1.58 nM. Also, the inhibitory effect result in assay [3] is “retained”.
